Measured values taken from US20180163056A1, “HYDROPHILIC CURABLE COMPOSITIONS” (MITSUI CHEMICALS, INC., priority 2013, published 2018).

Test: Measurement of solubility with respect to cyclohexane:toluene=5:1 (by weight)
Type: physicochemical
Conditions: 25° C., stirred 1 hour, 0.45 μm filter
Experimental: 1.0 g of hydrophilic compound SPA-K, namely, potassium 3-acryloyloxypropylsulfonate (or potassium 3-sulfopropylacrylate salt) as a constituent for the concentration-gradient films according to the invention was added to 10.0 g of a mixture solution including 8.3 g of cyclohexane and 1.7 g of toluene. The mixture was stirred at 25° C. for 1 hour and was filtered through a 0.45 μm membrane filter.
The filtrate was placed onto an evaporation dish, heated at 150° C. for 2 hours, and cooled to room temperature. The weight of the residue was measured.
Lastly, the solubility with respect to cyclohexane:toluene=5:1 (by weight) was calculated using the following equation.
Solubility (wt %)=Weight of residue (g)/{10.0 (g)+Weight of residue (g)}×100

C=CC(=O)OCCCS(=O)(=O)[O-].[K+] [SPA-K, potassium 3-acryloyloxypropylsulfonate]
Solubility with respect to cyclohexane:toluene=5:1 (by weight): < 1 wt %
